Measured values as given in PMC9305971, “Development of [^18F]AmBF3 Tetrazine for Radiolabeling of Peptides: Preclinical Evaluation and PET Imaging of [^18F]AmBF3-PEG7-Tyr^3-Octreotide in an AR42J Pancreatic Carcinoma Model” (Bioconjugate Chemistry, 2022).
Like-named read-outs stand apart in the source and are kept apart here.

Legend:
[1] = Distribution of radioactivity in blood components after i.v. administration; assay type: in vivo, mice
Experimental: Whole blood from mice were extracted during ex vivo studies, using cardiac puncture. The sample was applied in a microtube containing 1% heparin solution in 0.9% NaCl (aq.) (2 μL); the sample was centrifuged (1000g, 10 min), the total radioactivity in the sample was measured with a γ counter, the supernatant was separated from the pellet (RBC containing fraction), and cold ACN (500 μL) was added. The sample was centrifuged (10,000g, 5 min) to remove the free fraction from the precipitated protein-containing pellet. The pellet (protein-bound fraction) and the supernatant (free fraction) were measured with a γ counter, and a sample (100 μL) was injected into HPLC and spotted (4 μL) on a TLC plate (radio-TLC, TLC silica gel 60 F254, ACN/water 80:20).

[2] = Dosimetry from dynamic PET, extrapolated to adult humans (OLINDA/EXM); assay type: in vivo, Rj:NMRI-Foxn1^nu/nu mice; conditions: extrapolated to adult human
Experimental: Dosimetry of [^18F]15 was calculated from the acquired PET/CT imaging data with Molecubes PET (β-CUBE) coupled with a CT (X-CUBE) (Ghent, Belgium). Regions of interest were drawn on source organs, namely, the heart, kidneys, liver, and lungs. Time–activity curves (TAC) were converted from mouse to human time −activity curves with the following equation [drawing 1] where morgan,h and WBh are the organ and whole-body weights for human, respectively. Mass morgan,m and WBm are the organ weight and the whole-body weight for mouse, respectively. Time–activity curves were normalized to 1 MBq injection, and the physical decay correction was removed. After this, the TAC’s were extrapolated into 3000 min, which corresponds in practice to infinity. Numbers of disintegrations in source organs are defined by integrating TAC from time 0 to 3000 min, and this value is input for OLINDA/EXM (version 2.1, Vanderbilt University, 2012) dosimetry software, where ICRP 89 reference adult male (73 kg) and ICRP 103 radiation weighting factors were used. Absorbed doses to each target organ are given in units mGy/MBq, and the effective dose is in units mSv/MBq.
Table S3. Dosimetry calculations.
Results after intravenous administration of [18F]15 from OLINDA/EXM (Version 2.1, Vanderbilt University, 2012), where ICRP 89 reference adult male (73 kg) and ICRP 103 radiation weighting factors were used. Absorbed doses to each target organ is given in units mGy/MBq and the effective dose in units mSv/MBq. The difference in radiation burden based on baseline (non-block) and blocked mice is negligible.
Target organ Baseline Avg. Baseline Std. Blocked Avg. Blocked Std. […]

[3] = 60 min post injection, blocked with octreotide

Question: With `C[C@@H](O)[C@@H]1NC(=O)[C@H](CCCCN)NC(=O)[C@@H](Cc2c[nH]c3ccccc23)NC(=O)[C@H](Cc2ccc(O)cc2)NC(=O)[C@@H](NC(=O)[C@@H](Cc2ccccc2)NC(=O)CCOCCOCCOCCOCCON=Cc2ccc(CNC(=O)OC3CCCc4cnnc(-c5ccc(CC(=O)NCC[N+](C)(C)C[B-](F)(F)F)cc5)c4CC3)cc2)CSSC[C@@H](C(=O)N[C@H](CO)[C@@H](C)O)NC1=O` (some centres unmarked) [[^18F]14] as the compound, how does the protein bound fraction ([1]; 5 min post injection) read?
Answer: 5.5%

Question: And the “radioactivity bound to red blood cells” value ([1]; 5 min post injection)?
Answer: 22%

Question: What about the “radioactivity bound to red blood cells” value ([1]; 5 min post injection, listed as [18F]14) of the same compound?
Answer: 21.6%

Question: What about the protein bound fraction ([1]; 60 min post injection) of the same compound?
Answer: 7.00%

Question: And the “radioactivity bound to red blood cells” value ([1]; 60 min post injection)?
Answer: 25%

Question: What about the protein bound fraction [1, 3] of the same compound?
Answer: 14.6%

Question: What about the “radioactivity bound to red blood cells” value [1, 3] of the same compound?
Answer: 29.7 ± 2.9%

Question: And the “radioactivity bound to red blood cells” value ([1]; 60 min post injection, blocked with octreotide, listed as [18F]14)?
Answer: 29.7%

Question: What about the “radioactivity bound to red blood cells” value ([1]; 60 min post injection, listed as [18F]14) of the same compound?
Answer: 24.5%

Question: What about the fraction unbound at 5 min ([1]; mouse, whole blood, intravenous, 5 min post injection, read-out: free fraction) of the same compound?
Answer: 0.729 ± 0.051

Question: And the fraction unbound at 60 min ([1]; mouse, whole blood, intravenous, 60 min post injection, blocked with octreotide, read-out: free fraction)?
Answer: 0.557 ± 0.114

Question: What about the fraction unbound at 60 min ([1]; mouse, whole blood, intravenous, 60 min post injection, read-out: free fraction) of the same compound?
Answer: 0.685 ± 0.053

Question: What does the source list for `C[C@@H](O)[C@@H]1NC(=O)[C@H](CCCCN)NC(=O)[C@@H](Cc2c[nH]c3ccccc23)NC(=O)[C@H](Cc2ccc(O)cc2)NC(=O)[C@@H](NC(=O)[C@@H](Cc2ccccc2)NC(=O)CCOCCOCCOCCOCCON=Cc2ccc(C(=O)NCCOCCOCCOCCNC(=O)OC3CCCc4cnnc(-c5ccc(CC(=O)NCC[N+](C)(C)C[B-](F)(F)F)cc5)c4CC3)cc2)CSSC[C@@H](C(=O)N[C@H](CO)[C@@H](C)O)NC1=O` (some centres unmarked) [[^18F]15]?
Answer: absorbed dose, adrenals ([2]; baseline): 0.0190 ± 0.0008 mGy/MBq; absorbed dose, brain ([2]; baseline): 0.0102 mGy/MBq; absorbed dose, esophagus ([2]; baseline): 0.0129 mGy/MBq; absorbed dose, eyes ([2]; baseline): 0.0102 mGy/MBq; absorbed dose, gallbladder wall ([2]; baseline): 0.0194 ± 0.0011 mGy/MBq; absorbed dose, heart wall ([2]; baseline): 0.0148 mGy/MBq; absorbed dose, kidneys ([2]; baseline): 0.0366 ± 0.0016 mGy/MBq; absorbed dose, left colon ([2]; baseline): 0.0143 mGy/MBq; absorbed dose, lungs ([2]; baseline): 0.0109 mGy/MBq; absorbed dose, osteogenic cells ([2]; baseline): 0.0120 mGy/MBq; absorbed dose, pancreas ([2]; baseline): 0.0156 ± 0.0002 mGy/MBq; absorbed dose, prostate ([2]; baseline): 0.0135 mGy/MBq; absorbed dose, rectum ([2]; baseline): 0.0136 mGy/MBq; absorbed dose, red marrow ([2]; baseline): 0.0113 mGy/MBq; absorbed dose, right colon ([2]; baseline): 0.0151 mGy/MBq; absorbed dose, salivary glands ([2]; baseline): 0.0118 mGy/MBq; absorbed dose, small intestine ([2]; baseline): 0.0144 mGy/MBq; absorbed dose, spleen ([2]; baseline): 0.0137 mGy/MBq; absorbed dose, stomach wall ([2]; baseline): 0.0141 mGy/MBq; absorbed dose, testes ([2]; baseline): 0.0112 mGy/MBq; absorbed dose, thymus ([2]; baseline): 0.0122 mGy/MBq; absorbed dose, thyroid ([2]; baseline): 0.0118 mGy/MBq; absorbed dose, total body ([2]; baseline): 0.0121 mGy/MBq; absorbed dose, urinary bladder wall ([2]; baseline): 0.0134 ± 0.0003 mGy/MBq; effective dose ([2]; baseline): 0.0112 mSv/MBq; absorbed dose, adrenals ([2]; baseline, listed as [18F]15): 0.0190 mGy/MBq; absorbed dose, gallbladder wall ([2]; baseline, listed as [18F]15): 0.0194 mGy/MBq; absorbed dose, kidneys ([2]; baseline, listed as [18F]15): 0.0366 mGy/MBq; absorbed dose, liver ([2]; baseline, listed as [18F]15): 0.0334 mGy/MBq; absorbed dose, pancreas ([2]; baseline, listed as [18F]15): 0.0156 mGy/MBq; absorbed dose, urinary bladder wall ([2]; baseline, listed as [18F]15): 0.0134 mGy/MBq; absorbed dose, adrenals ([2]; blocked): 0.0185 ± 0.0001 mGy/MBq; absorbed dose, brain ([2]; blocked): 0.0103 mGy/MBq; absorbed dose, esophagus ([2]; blocked): 0.0129 mGy/MBq; absorbed dose, eyes ([2]; blocked): 0.0103 mGy/MBq; absorbed dose, gallbladder wall ([2]; blocked): 0.0190 ± 0.0011 mGy/MBq; absorbed dose, heart wall ([2]; blocked): 0.0150 mGy/MBq; absorbed dose, kidneys ([2]; blocked): 0.0337 ± 0.0043 mGy/MBq; absorbed dose, left colon ([2]; blocked): 0.0144 mGy/MBq; absorbed dose, liver ([2]; blocked): 0.0313 ± 0.0040 mGy/MBq; absorbed dose, lungs ([2]; blocked): 0.0106 mGy/MBq; absorbed dose, osteogenic cells ([2]; blocked): 0.0121 mGy/MBq; absorbed dose, pancreas ([2]; blocked): 0.0154 ± 0.0001 mGy/MBq; absorbed dose, prostate ([2]; blocked): 0.0136 mGy/MBq; absorbed dose, rectum ([2]; blocked): 0.0137 mGy/MBq; absorbed dose, red marrow ([2]; blocked): 0.0114 mGy/MBq; absorbed dose, right colon ([2]; blocked): 0.0150 mGy/MBq; absorbed dose, salivary glands ([2]; blocked): 0.0119 mGy/MBq; absorbed dose, small intestine ([2]; blocked): 0.0145 mGy/MBq; absorbed dose, spleen ([2]; blocked): 0.0136 mGy/MBq; absorbed dose, stomach wall ([2]; blocked): 0.0141 mGy/MBq; absorbed dose, testes ([2]; blocked): 0.0113 mGy/MBq; absorbed dose, thymus ([2]; blocked): 0.0122 mGy/MBq; absorbed dose, thyroid ([2]; blocked): 0.0119 mGy/MBq; absorbed dose, total body ([2]; blocked): 0.0121 mGy/MBq; absorbed dose, urinary bladder wall ([2]; blocked): 0.0135 ± 0.0000 mGy/MBq; effective dose ([2]; blocked): 0.011 mSv/MBq; absorbed dose, adrenals ([2]; blocked, listed as [18F]15): 0.0185 mGy/MBq; absorbed dose, gallbladder wall ([2]; blocked, listed as [18F]15): 0.0190 mGy/MBq; absorbed dose, kidneys ([2]; blocked, listed as [18F]15): 0.0337 mGy/MBq; absorbed dose, liver ([2]; blocked, listed as [18F]15): 0.0313 mGy/MBq; absorbed dose, pancreas ([2]; blocked, listed as [18F]15): 0.0154 mGy/MBq; absorbed dose, urinary bladder wall ([2]; blocked, listed as [18F]15): 0.0135 mGy/MBq; absorbed dose, all organs [2]: below 0.04 mGy/MBq; absorbed dose, all other organs apart from the kidneys and liver [2]: ≤ 0.02 mGy/MBq
